Patent publication US11591355B2 (Peloton Therapeutics, Inc., priority 2017, dated 2023)

Key:
[1] = biological target: T1, Human CD73 (Homo sapiens, UniProt P21589); test: CD73 Enzyme Assay; type: biochemical; settings: 0.25 nM hCD73, 25 μM AMP, kinetic read at 360 nm; read-out: CD73 Enzyme Assay IC50
T1 construct: purchased R&D Systems; host or cells: CHO cells
T1 sequence (P21589 27-549): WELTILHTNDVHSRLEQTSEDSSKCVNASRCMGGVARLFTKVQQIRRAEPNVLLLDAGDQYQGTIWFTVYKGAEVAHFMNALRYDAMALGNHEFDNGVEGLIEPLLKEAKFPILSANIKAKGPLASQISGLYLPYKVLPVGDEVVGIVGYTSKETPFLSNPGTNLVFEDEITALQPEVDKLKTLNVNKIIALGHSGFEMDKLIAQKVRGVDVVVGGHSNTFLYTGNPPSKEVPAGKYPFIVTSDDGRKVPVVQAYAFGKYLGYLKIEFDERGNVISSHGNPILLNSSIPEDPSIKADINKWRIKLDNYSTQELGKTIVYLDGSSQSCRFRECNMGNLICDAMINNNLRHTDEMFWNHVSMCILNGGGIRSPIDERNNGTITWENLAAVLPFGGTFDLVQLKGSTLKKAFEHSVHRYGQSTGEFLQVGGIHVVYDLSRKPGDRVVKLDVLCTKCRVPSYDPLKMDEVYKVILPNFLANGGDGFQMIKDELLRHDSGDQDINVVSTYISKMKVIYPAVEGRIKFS

[2] = biological target: T2, CD73 on U138 human neuroglioma cells (Homo sapiens, UniProt P21589); test: CD73 Cell-Based Assay; settings: U138 cells, AMP substrate, 2 hours at 37° C., inorganic phosphate by malachite green
T2 construct: U138 cells were obtained from ATCC and cultured in DMEM with 10% FBS; host or cells: U138 human neuroglioma cells
T2 sequence (P21589 27-549): T1 sequence (P21589 27-549)
Outline: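 Whole U138 cells washed free of phosphate were incubated with 200 μM AMP (mixture concentration before equal-volume addition) plus compound in HEPES-buffered saline, pH 7.4, for 2 h at 37 °C, 5% CO2. Adenosine-forming activity read as inorganic phosphate released into supernatant by malachite green.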

Row | Structure (SMILES) | IC50 [1] | IC50 [2]
1 | CN(C)c1nc(C#N)nc2c1ccn2[C@@H]1O[C@H](COCP(=O)(O)O)[C@@H](O)[C@H]1O [Compound 107, [(2R,3S,4R,5R)-5-[2-cyano-4-(dimethyl-amino)pyrrolo[2,3-d]-pyrimidin-7-yl]-3,4-dihydroxy-tetrahydro-furan-2-yl]methoxy-methylphosphonic acid] | 10 to 100 nM | 10 to 100 nM
2 | CCNc1nc(C#N)nc2c1ccn2[C@@H]1O[C@H](COCP(=O)(O)O)[C@@H](O)[C@H]1O [Compound 108, [(2R,3S,4R,5R)-5-[2-cyano-4-(ethylamino)-pyrrolo[2,3-d]-pyrimidin-7-yl]-3,4-dihydroxy-tetrahydro-furan-2-yl]methoxy-methylphosphonic acid] | 10 to 100 nM | 10 to 100 nM
3 | O=P(O)(O)COC[C@H]1O[C@@H](n2ccc3c(NC4CCC4)nc(Cl)nc32)[C@H](O)[C@@H]1O [Compound 109, [(2R,3S,4R,5R)-5-[2-chloro-4-(cyclobutyl-amino)pyrrolo[2,3-d]-pyrimidin-7-yl]-3,4-dihydroxy-tetrahydro-furan-2-yl]methoxy-methylphosphonic acid] | < 10 nM | < 10 nM
4 | N#Cc1nc(NC2CCC2)c2ccn([C@@H]3O[C@H](COCP(=O)(O)O)[C@@H](O)[C@H]3O)c2n1 [Compound 110, [(2R,3S,4R,5R)-5-[2-cyano-4-(cyclobutyl-amino)pyrrolo[2,3-d]-pyrimidin-7-yl]-3,4-dihydroxy-tetrahydro-furan-2-yl]methoxy-methylphosphonic acid] | < 10 nM | < 10 nM
5 | O=P(O)(O)COC[C@H]1O[C@@H](n2ccc3c(NC4CCCCC4)nc(Cl)nc32)[C@H](O)[C@@H]1O [Compound 111, [(2R,3S,4R,5R)-5-[2-chloro-4-(cyclohexyl-amino)pyrrolo[2,3-d]-pyrimidin-7-yl]-3,4-dihydroxy-tetrahydro-furan-2-yl]methoxy-methylphosphonic acid] | < 10 nM | < 10 nM
6 | O=P(O)(O)COC[C@H]1O[C@@H](n2ccc3c(N4CCC4)nc(Cl)nc32)[C@H](O)[C@@H]1O [Compound 112, [(2R,3S,4R,5R)-5-[4-(azetidin-1-yl)-2-chloro-pyrrolo[2,3-d]-pyrimidin-7-yl]-3,4-dihydroxy-tetrahydro-furan-2-yl]methoxy-methylphosphonic acid] | 10 to 100 nM | 10 to 100 nM
7 | C[C@H](c1ccccc1)N(C)c1nc(C#N)nc2c1ncn2[C@@H]1O[C@H](COCP(=O)(O)O)[C@@H](O)[C@H]1O [Compound 113] | 10 to 100 nM | 10 to 100 nM
8 | C[C@@H](Nc1nc(Cl)nc2c1ccn2[C@@H]1O[C@H](COCP(=O)(O)O)[C@@H](O)[C@H]1O)c1ccc(C(F)(F)F)cc1 [Compound 114, [(2R,3S,4R,5R)-5-[2-chloro-4-[[(1R)-1-[4-(trifluoromethyl)-phenyl]ethyl]amino]-pyrrolo[2,3-d]-pyrimidin-7-yl]-3,4-dihydroxy-tetrahydro-furan-2-yl]methoxy-methylphosphonic acid] | 10 to 100 nM | < 10 nM
9 | C[C@@H](Nc1nc(C#N)nc2c1ccn2[C@@H]1O[C@H](COCP(=O)(O)O)[C@@H](O)[C@H]1O)c1ccc(C(F)(F)F)cc1 [Compound 115, [(2R,3S,4R,5R)-5-[2-cyano-4-[[(1R)-1-[4-(trifluoromethyl)-phenyl]ethyl]amino]-pyrrolo[2,3-d]-pyrimidin-7-yl]-3,4-dihydroxy-tetrahydro-furan-2-yl]methoxy-methylphosphonic acid] | < 10 nM | 10 to 100 nM
10 | C[C@H](Nc1nc(Cl)nc2c1ccn2[C@@H]1O[C@H](COCP(=O)(O)O)[C@@H](O)[C@H]1O)c1ccc(F)cc1F [Compound 116, [(2R,3S,4R,5R)-5-[2-chloro-4-[[(1S)-1-(2,4-difluorophenyl)-ethyl]amino]pyrrolo-[2,3-d]pyrimidin-7-yl]-3,4-dihydroxy-tetrahydrofuran-2-yl]methoxymethyl-phosphonic acid] | < 10 nM | < 10 nM
11 | C[C@H](Nc1nc(Cl)nc2c1ccn2[C@@H]1O[C@H](COCP(=O)(O)O)[C@@H](O)[C@H]1O)c1ccc(C#N)cc1 [Compound 117, [(2R,3S,4R,5R)-5-[2-chloro-4-[[(1S)-1-(4-cyanophenyl)ethyl]-amino]pyrrolo[2,3-d]-pyrimidin-7-yl]-3,4-dihydroxy-tetrahydro-furan-2-yl]methoxy-methylphosphonic acid] | 10 to 100 nM | < 10 nM
12 | N#Cc1nc(NC2CCCCC2)c2ccn([C@@H]3O[C@H](COCP(=O)(O)O)[C@@H](O)[C@H]3O)c2n1 [Compound 119, [(2R,3S,4R,5R)-5-[2-cyano-4-(cyclohexyl-amino)pyrrolo[2,3-d]-pyrimidin-7-yl]-3,4-dihydroxy-tetrahydro-furan-2-yl]methoxy-methylphosphonic acid] | < 10 nM | < 10 nM
13 | N#Cc1nc(NC2CCOCC2)c2ccn([C@@H]3O[C@H](COCP(=O)(O)O)[C@@H](O)[C@H]3O)c2n1 [Compound 120, [(2R,3S,4R,5R)-5-[2-cyano-4-(tetrahydro-pyran-4-ylamino)-pyrrolo[2,3-d]-pyrimidin-7-yl]-3,4-dihydroxy-tetrahydro-furan-2-yl]methoxy-methylphosphonic acid] | 100 to 1000 nM | 10 to 100 nM
14 | O=P(O)(O)COC[C@H]1O[C@@H](n2ccc3c(NC4CCC(F)(F)CC4)nc(Cl)nc32)[C@H](O)[C@@H]1O [Compound 121, [(2R,3S,4R,5R)-5-[2-chloro-4-[(4,4-difluorocyclohexyl)-amino]pyrrolo[2,3-d]-pyrimidin-7-yl]-3,4-dihydroxy-tetrahydro-furan-2-yl]methoxy-methylphosphonic acid] | 10 to 100 nM | < 10 nM
15 | N#Cc1nc(N2CCC2)c2ccn([C@@H]3O[C@H](COCP(=O)(O)O)[C@@H](O)[C@H]3O)c2n1 [Compound 122, [(2R,3S,4R,5R)-5-[4-(azetidin-1-yl)-2-cyano-pyrrolo[2,3-d]-pyrimidin-7-yl]-3,4-dihydroxy-tetrahydro-furan-2-yl]methoxy-methylphosphonic acid] | 10 to 100 nM | 10 to 100 nM
16 | O=P(O)(O)COC[C@H]1O[C@@H](n2ccc3c(N4CCC(F)(F)C4)nc(Cl)nc32)[C@H](O)[C@@H]1O [Compound 123, [(2R,3S,4R,5R)-5-[2-chloro-4-(3,3-difluoro-pyrrolidin-1-yl)pyrrolo-[2,3-d]pyrimidin-7-yl]-3,4-dihydroxy-tetrahydrofuran-2-yl]-methoxymethylphos-phonic acid] | < 10 nM | < 10 nM
17 | C[C@H](c1ccccc1)N(C)c1nc(Cl)nc2c1ccn2[C@@H]1O[C@H](COCP(=O)(O)O)[C@@H](O)[C@H]1O [Compound 124, [(2R,3S,4R,5R)-5-[2-chloro-4-[methyl-[(1R)-1-phenylethyl]-amino]pyrrolo[2,3-d]-pyrimidin-7-yl]-3,4-dihydroxy-tetrahydro-furan-2-yl]methoxy-methylphosphonic acid] | < 10 nM | < 10 nM
18 | N#Cc1nc(N2CCC(F)(F)C2)c2ccn([C@@H]3O[C@H](COCP(=O)(O)O)[C@@H](O)[C@H]3O)c2n1 [Compound 125, [(2R,3S,4R,5R)-5-[2-cyano-4-(3,3-difluoropyrrolidin-1-yl)-pyrrolo[2,3-d]-pyrimidin-7-yl]-3,4-dihydroxy-tetrahydro-furan-2-yl]methoxy-methylphosphonic acid] | < 10 nM | < 10 nM
19 | O=P(O)(O)COC[C@H]1O[C@@H](n2ccc3c(N4CCCCC4)nc(Cl)nc32)[C@H](O)[C@@H]1O [Compound 126, [(2R,3S,4R,5R)-5-[2-chloro-4-(1-piperidyl)-pyrrolo[2,3-d]-pyrimidin-7-yl]-3,4-dihydroxy-tetrahydro-furan-2-yl]methoxy-methylphosphonic acid] | 10 to 100 nM | < 10 nM
20 | N#Cc1nc(N2CCOCC2)c2ccn([C@@H]3O[C@H](COCP(=O)(O)O)[C@@H](O)[C@H]3O)c2n1 [Compound 127, [(2R,3S,4R,5R)-5-(2-cyano-4-morpholino-pyrrolo[2,3-d]-pyrimidin-7-yl)-3,4-dihydroxy-tetrahydro-furan-2-yl]methoxy-methylphosphonic acid] | 10 to 100 nM | 10 to 100 nM
21 | O=P(O)(O)COC[C@H]1O[C@@H](n2ccc3c(N4CCC(F)(F)CC4)nc(Cl)nc32)[C@H](O)[C@@H]1O [Compound 128, [(2R,3S,4R,5R)-5-[2-chloro-4-(4,4-difluoro-1-piperidyl)pyrrolo-[2,3-d]pyrimidin-7-yl]-3,4-dihydroxy-tetrahydrofuran-2-yl]-methoxymethylphos-phonic acid] | 10 to 100 nM | 10 to 100 nM
22 | N#Cc1nc(N2CCC(F)(F)CC2)c2ccn([C@@H]3O[C@H](COCP(=O)(O)O)[C@@H](O)[C@H]3O)c2n1 [Compound 129, [(2R,3S,4R,5R)-5-[2-cyano-4-(4,4-difluoro-1-piperidyl)pyrrolo-[2,3-d]pyrimidin-7-yl]-3,4-dihydroxy-tetrahydrofuran-2-yl]-methoxymethylphos-phonic acid] | 10 to 100 nM | 10 to 100 nM
